# Laboratory results taken from PubChem BioAssay (NCI).
# Where “and” joins values, the source holds several entries; their conditions need not be identical. Identical values can stand only once.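 48-hour exposure; five concentrations; linearly interpolated endpoints. GI50: concentration for 50% inhibition of growth. At the TGI there is no net growth.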
# Assays:
# Test in all cases: growth of human tumour cells (NCI), 48 h
# A549 NSCLC = tested on: A549 NSCLC
# CAKI-1 renal = tested on: CAKI-1 renal
# CCRF-CEM leukemia = tested on: CCRF-CEM leukemia
# EKVX NSCLC = tested on: EKVX NSCLC
# HCT-116 colon = tested on: HCT-116 colon
# HOP-62 NSCLC = tested on: HOP-62 NSCLC
# KM12 colon = tested on: KM12 colon
# MOLT-4 leukemia = tested on: MOLT-4 leukemia
# NCI-H226 lung = tested on: NCI-H226 lung
# NCI-H522 lung = tested on: NCI-H522 lung
Structure (SMILES),GI50 (A549 NSCLC),TGI (A549 NSCLC),GI50 (CAKI-1 renal),TGI (CAKI-1 renal),GI50 (CCRF-CEM leukemia),TGI (CCRF-CEM leukemia),GI50 (EKVX NSCLC),TGI (EKVX NSCLC),GI50 (HCT-116 colon),TGI (HCT-116 colon),GI50 (HOP-62 NSCLC),TGI (HOP-62 NSCLC),GI50 (KM12 colon),TGI (KM12 colon),GI50 (MOLT-4 leukemia),TGI (MOLT-4 leukemia),GI50 (NCI-H226 lung),TGI (NCI-H226 lung),GI50 (NCI-H522 lung),TGI (NCI-H522 lung)
C[C@H](c1ccc(F)cc1CCCC(=O)O)N(c1cc(F)ccc1F)S(=O)(=O)c1ccc(Cl)cc1,28.1 µM,> 100 µM,17.6 µM,> 81.2 µM,19.3 µM,> 69.7 µM,30 µM,> 100 µM,19.4 µM,47.1 µM,24.4 µM,> 70.2 µM,26.5 µM,> 100 µM,22.8 µM,> 83 µM,31 µM,> 100 µM,26 µM,> 93.3 µM
OCc1ccc(-c2csc(-c3ccc(CO)o3)c2)o1,15.3 µM,64.9 µM,41.5 µM,> 100 µM,31.1 µM,> 100 µM,21.3 µM,> 89.6 µM,5.71 µM,> 100 µM,27.1 µM,> 100 µM,39.1 µM,> 100 µM,20.7 µM,60.1 µM,0.165 µM,0.454 µM,43.6 µM,> 100 µM
COc1ccc(Nc2nc3cc(C(F)(F)F)ccc3nc2-c2ccccc2)cc1OC,–,> 100 µM,–,68.8 µM,–,> 100 µM,–,71.2 µM,–,> 100 µM,–,39.3 µM,–,> 100 µM,–,> 100 µM,–,69.7 µM,–,> 100 µM
NC1N=Nc2ccccc21 (configuration not stated),–,> 100 µM,–,> 100 µM,–,> 100 µM,–,> 100 µM,–,> 100 µM,–,> 100 µM,–,> 100 µM,–,> 100 µM,–,> 100 µM,–,> 100 µM
O=C(Cn1c(C(=O)c2ccc(Cl)cc2)nc(-c2ccc(Cl)cc2)c1-c1ccc(Cl)cc1)c1ccccc1,> 100 µM,> 100 µM,> 100 µM,> 100 µM,> 100 µM,> 100 µM,> 100 µM,> 100 µM,> 100 µM,> 100 µM,> 100 µM,> 100 µM,> 100 µM,> 100 µM,> 100 µM,> 100 µM,> 100 µM,> 100 µM,> 100 µM,> 100 µM
O=C(c1ccccc1)C(Cl)C(Cl)c1ccccc1 (configuration not stated),18.3 µM,34.2 µM,2.53 µM,8.18 µM,1.67 µM,6.93 µM,5.24 µM,18.9 µM,1.44 µM,2.95 µM,7.61 µM,21.7 µM,3.76 µM,15.1 µM,2.33 µM,6.25 µM,2.17 µM,5.35 µM,1.7 µM,3.42 µM
COc1ccc(/C=C/C(=O)c2c(O)ccc3c(C)c(C(=O)O)oc23)cc1,91.9 µM,> 100 µM,63.2 µM,> 100 µM,40.3 µM,> 100 µM,> 100 µM,> 100 µM,49.2 µM,> 100 µM,89.9 µM,> 100 µM,> 100 µM,> 100 µM,31 µM,> 100 µM,45.1 µM,> 100 µM,33.9 µM,> 100 µM
N#CCCN(CCC#N)c1ccc(/C=C(/NC(=O)c2cc([N+](=O)[O-])ccc2Cl)C(=O)NN)cc1,–,> 100 µM,–,> 100 µM,–,> 100 µM,–,> 100 µM,–,> 100 µM,–,> 100 µM,–,> 100 µM,–,> 100 µM,–,> 100 µM,–,> 100 µM
CS(=O)(=O)CCNCc1ccc(-c2ccc3ncnc(Nc4ccc(OCc5cccc(F)c5)c(Cl)c4)c3c2)o1,7.66 µM and 5.68 µM and 5.76 µM,> 10 µM and > 100 µM and 23.5 µM,–,> 10 µM and > 25 µM and 27.7 µM,> 10 µM and 2.03 µM and 1.56 µM,> 10 µM and 5.67 µM and 20.7 µM,0.374 µM and 0.0822 µM and 0.107 µM,> 10 µM and > 100 µM and 41.7 µM,> 10 µM and 7.19 µM and 10.3 µM,> 10 µM and > 100 µM and 23.6 µM,> 10 µM and > 62.2 µM and 13 µM,> 10 µM and > 100 µM and 43.9 µM,8.92 µM and 2.03 µM and 5.25 µM,> 10 µM and 4 µM and 24.5 µM,4.54 µM and 2.93 µM and 2.94 µM,> 10 µM and > 100 µM and 21.9 µM,> 10 µM and > 100 µM and 25 µM,> 10 µM and > 100 µM and 86.7 µM,0.28 µM and 0.397 µM and 0.815 µM,> 10 µM and > 100 µM and 28.9 µM
COc1cc(OC)cc(Oc2cnc3cc(N)cc(N)c3n2)c1,22.8 µM,> 100 µM,13 µM,27.7 µM,28.5 µM,> 100 µM,18.5 µM,46.2 µM,6.47 µM,20.2 µM,16.9 µM,36.6 µM,10.3 µM,24.1 µM,5.37 µM,20.7 µM,17.1 µM,38 µM,18.7 µM,37.3 µM
CCc1ccccc1NC(=O)C(C#N)C1=C(Cl)C(=O)c2ccccc2C1=O (configuration not stated),–,54.7 µM,–,45.6 µM,–,> 100 µM,–,33.7 µM,–,28.8 µM,–,43.4 µM,–,28.4 µM,–,> 100 µM,–,30.4 µM,–,29.7 µM
COc1cc(-c2cc3ncccc3c3nc(OCCN(C)C)c4cccnc4c23)cc(OC)c1OC,0.346 µM,1.54 µM,0.468 µM,3.14 µM,0.714 µM,8.09 µM,0.513 µM,3.24 µM,–,–,0.75 µM,3 µM,1.14 µM,> 100 µM,0.314 µM,2.71 µM,0.623 µM,2.46 µM,0.457 µM,2.78 µM
COc1ccc2c(c1)Oc1cc(O)ccc1[C@H]2c1ccccc1C(=O)NC(C)c1ccccc1 (some centres not stated),–,31.5 µM,–,33.7 µM,–,72.7 µM,–,33.5 µM,–,26.5 µM,–,44.6 µM,–,36.5 µM,–,64.8 µM,–,38.8 µM,–,28 µM
Cc1ccc(F)c(NC(=O)Nc2ccc(-c3cccc4[nH]nc(N)c34)cc2)c1,2.31 µM and 2.12 µM,5.97 µM and 4.95 µM,2.83 µM and 3.85 µM,10.1 µM and > 10 µM,2.9 µM and 3.4 µM,9.29 µM and > 10 µM,3.58 µM and 3.52 µM,16.6 µM and > 10 µM,3.12 µM and 3.5 µM,11.4 µM and > 10 µM,4.07 µM and 3.12 µM,16.2 µM and > 10 µM,1.64 µM and 1.55 µM,4.94 µM and 5.79 µM,3.13 µM and 3.08 µM,> 42.9 µM,5.88 µM and 6.06 µM,20.5 µM and > 10 µM,1.87 µM and 2.19 µM,3.79 µM and 5.28 µM
